Columns and labels:
Assay in all cases: Eurofins kinase selectivity profile against 380 other human recombinant kinases (Table S2)
Format in all cases: biochemical
[1] = target: T1, 380 human recombinant protein kinases (Homo sapiens, UniProt P53779); details: JNK3(h), read-out: Inhibition rate
T1 construct: purchased Eurofins (Celle Lévescault)
Outline: (§1)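 Values come from a contract kinase-profiling service that tested the compound at multiple concentrations across 380 recombinant human kinases, as an off-target check against the MK2 activity.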

[2] = target: T2, 380 human recombinant protein kinases (Homo sapiens, UniProt Q15349); details: Rsk3(h), read-out: Inhibition rate (%)
T2 construct: purchased Eurofins (Celle Lévescault)
Outline: as §1

[3] = target: T3, 380 human recombinant protein kinases (Homo sapiens, UniProt P29320); details: EphA3(h), read-out: Inhibition rate
T3 construct: purchased Eurofins (Celle Lévescault)
T3 sequence (P29320 21-983): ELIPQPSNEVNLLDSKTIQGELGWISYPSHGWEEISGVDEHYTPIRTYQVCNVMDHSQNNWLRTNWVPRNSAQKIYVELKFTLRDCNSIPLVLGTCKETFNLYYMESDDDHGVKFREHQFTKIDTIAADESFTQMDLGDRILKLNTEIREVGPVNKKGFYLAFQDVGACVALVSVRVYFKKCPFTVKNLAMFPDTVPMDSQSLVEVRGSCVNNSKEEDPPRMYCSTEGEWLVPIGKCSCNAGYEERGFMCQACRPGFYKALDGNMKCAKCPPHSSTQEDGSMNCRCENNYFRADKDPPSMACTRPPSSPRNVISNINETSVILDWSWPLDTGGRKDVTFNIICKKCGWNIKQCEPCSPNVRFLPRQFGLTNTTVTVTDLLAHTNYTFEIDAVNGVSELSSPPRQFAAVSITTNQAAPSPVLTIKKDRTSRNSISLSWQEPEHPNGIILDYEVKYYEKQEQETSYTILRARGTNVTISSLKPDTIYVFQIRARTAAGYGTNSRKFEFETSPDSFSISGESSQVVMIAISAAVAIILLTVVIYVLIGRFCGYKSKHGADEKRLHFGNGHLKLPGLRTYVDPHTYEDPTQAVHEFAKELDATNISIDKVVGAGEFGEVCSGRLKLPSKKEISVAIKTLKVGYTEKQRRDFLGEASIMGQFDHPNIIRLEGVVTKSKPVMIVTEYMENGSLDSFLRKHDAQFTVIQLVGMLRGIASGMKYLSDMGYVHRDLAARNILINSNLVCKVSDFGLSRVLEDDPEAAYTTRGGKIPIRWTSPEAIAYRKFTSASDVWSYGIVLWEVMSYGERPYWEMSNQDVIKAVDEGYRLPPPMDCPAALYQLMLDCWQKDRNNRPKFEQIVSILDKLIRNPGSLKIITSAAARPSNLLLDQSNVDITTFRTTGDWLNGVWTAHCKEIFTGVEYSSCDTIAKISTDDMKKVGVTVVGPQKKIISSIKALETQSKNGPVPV
Outline: as §1

[4] = target: T4, 380 human recombinant protein kinases (Homo sapiens, UniProt P36897); details: TGFBR1(h), read-out: Inhibition rate (%)
T4 construct: purchased Eurofins (Celle Lévescault)
T4 sequence (P36897 34-503): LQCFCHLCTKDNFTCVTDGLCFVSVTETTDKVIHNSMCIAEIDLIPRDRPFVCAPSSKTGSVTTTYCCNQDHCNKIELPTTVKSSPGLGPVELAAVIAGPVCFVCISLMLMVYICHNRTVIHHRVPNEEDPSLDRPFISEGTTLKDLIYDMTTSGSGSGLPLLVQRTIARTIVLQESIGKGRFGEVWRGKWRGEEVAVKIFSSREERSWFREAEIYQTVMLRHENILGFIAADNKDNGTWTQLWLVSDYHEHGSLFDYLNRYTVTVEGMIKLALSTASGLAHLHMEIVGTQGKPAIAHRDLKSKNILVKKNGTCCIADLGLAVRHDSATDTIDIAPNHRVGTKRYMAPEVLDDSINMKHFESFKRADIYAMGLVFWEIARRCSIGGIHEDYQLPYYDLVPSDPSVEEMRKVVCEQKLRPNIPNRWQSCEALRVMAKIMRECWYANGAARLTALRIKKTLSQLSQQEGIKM
Outline: as §1

[5] = target: T5, 380 human recombinant protein kinases (Homo sapiens, UniProt P30291); details: Wee1(h), read-out: Inhibition rate (%)
T5 construct: purchased Eurofins (Celle Lévescault)
Outline: as §1

[6] = target: T6, 380 human recombinant protein kinases (Homo sapiens, UniProt Q9Y6M4); details: CK1γ3(h), read-out: Inhibition rate
T6 construct: purchased Eurofins (Celle Lévescault)
Outline: as §1

[7] = target: T7, 380 human recombinant protein kinases (Homo sapiens, UniProt Q9P289); details: MST4(h), read-out: Inhibition rate
T7 construct: purchased Eurofins (Celle Lévescault)
Outline: as §1

[8] = target: T8, 380 human recombinant protein kinases (Homo sapiens, UniProt P05129); details: PKCγ(h), read-out: Inhibition rate
T8 construct: purchased Eurofins (Celle Lévescault)
Outline: as §1

[9] = target: T9, 380 human recombinant protein kinases (Homo sapiens, UniProt P46734); details: MKK3(h), read-out: Inhibition rate
T9 construct: purchased Eurofins (Celle Lévescault)
T9 sequence (P46734 1-347): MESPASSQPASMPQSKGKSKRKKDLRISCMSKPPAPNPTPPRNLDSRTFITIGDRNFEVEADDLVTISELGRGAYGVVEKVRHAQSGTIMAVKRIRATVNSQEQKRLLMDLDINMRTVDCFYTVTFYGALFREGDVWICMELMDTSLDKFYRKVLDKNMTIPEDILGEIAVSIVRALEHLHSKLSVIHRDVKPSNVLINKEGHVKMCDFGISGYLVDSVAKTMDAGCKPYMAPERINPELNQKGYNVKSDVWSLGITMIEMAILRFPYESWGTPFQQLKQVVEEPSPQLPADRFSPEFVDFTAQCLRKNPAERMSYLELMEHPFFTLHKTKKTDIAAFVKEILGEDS
Outline: as §1

T5 sequence (P30291 whole entry): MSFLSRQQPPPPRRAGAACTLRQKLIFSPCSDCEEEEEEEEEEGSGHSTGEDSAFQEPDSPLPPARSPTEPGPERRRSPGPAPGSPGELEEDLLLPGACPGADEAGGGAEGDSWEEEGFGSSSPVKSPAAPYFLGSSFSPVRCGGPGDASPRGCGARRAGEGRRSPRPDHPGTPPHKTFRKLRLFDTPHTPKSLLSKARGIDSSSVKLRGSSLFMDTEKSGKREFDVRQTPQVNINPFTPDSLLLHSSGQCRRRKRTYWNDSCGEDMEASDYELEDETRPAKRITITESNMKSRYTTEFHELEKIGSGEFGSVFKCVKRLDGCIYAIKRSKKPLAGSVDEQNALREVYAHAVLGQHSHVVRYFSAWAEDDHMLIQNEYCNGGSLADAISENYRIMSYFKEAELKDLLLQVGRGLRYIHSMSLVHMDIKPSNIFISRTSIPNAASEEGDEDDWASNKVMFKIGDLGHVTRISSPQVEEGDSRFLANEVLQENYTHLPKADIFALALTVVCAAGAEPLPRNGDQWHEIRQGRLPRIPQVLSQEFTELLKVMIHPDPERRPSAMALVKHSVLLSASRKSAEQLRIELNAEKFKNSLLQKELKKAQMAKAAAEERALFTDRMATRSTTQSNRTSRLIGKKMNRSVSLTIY
T2 sequence (Q15349 whole entry): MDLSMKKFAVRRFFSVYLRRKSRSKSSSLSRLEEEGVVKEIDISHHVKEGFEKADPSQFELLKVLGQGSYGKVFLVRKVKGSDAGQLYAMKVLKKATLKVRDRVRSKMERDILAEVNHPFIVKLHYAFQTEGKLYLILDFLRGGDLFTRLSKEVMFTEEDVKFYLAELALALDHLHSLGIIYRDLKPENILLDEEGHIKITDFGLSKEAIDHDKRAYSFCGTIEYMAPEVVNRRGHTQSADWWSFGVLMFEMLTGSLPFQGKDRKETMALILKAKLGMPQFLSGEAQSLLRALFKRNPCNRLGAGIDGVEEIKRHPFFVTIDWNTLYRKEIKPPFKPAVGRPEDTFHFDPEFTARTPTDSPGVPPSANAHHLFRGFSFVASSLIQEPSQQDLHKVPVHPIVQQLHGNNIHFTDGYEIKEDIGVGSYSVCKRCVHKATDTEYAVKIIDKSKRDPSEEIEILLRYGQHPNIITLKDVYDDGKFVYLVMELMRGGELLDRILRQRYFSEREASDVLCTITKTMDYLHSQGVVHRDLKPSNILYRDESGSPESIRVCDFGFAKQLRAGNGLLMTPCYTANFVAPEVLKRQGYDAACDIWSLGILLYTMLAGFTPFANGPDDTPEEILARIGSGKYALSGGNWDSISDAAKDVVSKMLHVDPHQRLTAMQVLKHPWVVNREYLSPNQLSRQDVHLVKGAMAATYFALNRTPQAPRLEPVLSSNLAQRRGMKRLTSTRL
T6 sequence (Q9Y6M4 whole entry): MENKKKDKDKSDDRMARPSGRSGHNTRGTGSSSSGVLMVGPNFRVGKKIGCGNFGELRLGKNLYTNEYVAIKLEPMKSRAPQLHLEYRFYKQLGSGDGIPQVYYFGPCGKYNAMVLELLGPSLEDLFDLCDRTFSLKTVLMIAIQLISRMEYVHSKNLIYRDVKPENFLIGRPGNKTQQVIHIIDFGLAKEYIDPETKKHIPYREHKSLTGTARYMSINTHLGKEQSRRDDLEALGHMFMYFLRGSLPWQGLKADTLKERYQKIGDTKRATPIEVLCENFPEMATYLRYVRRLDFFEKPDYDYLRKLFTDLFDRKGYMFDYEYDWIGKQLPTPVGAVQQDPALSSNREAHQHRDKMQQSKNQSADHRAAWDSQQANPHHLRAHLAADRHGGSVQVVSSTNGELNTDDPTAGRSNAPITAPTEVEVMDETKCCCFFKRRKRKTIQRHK
T1 sequence (P53779 whole entry): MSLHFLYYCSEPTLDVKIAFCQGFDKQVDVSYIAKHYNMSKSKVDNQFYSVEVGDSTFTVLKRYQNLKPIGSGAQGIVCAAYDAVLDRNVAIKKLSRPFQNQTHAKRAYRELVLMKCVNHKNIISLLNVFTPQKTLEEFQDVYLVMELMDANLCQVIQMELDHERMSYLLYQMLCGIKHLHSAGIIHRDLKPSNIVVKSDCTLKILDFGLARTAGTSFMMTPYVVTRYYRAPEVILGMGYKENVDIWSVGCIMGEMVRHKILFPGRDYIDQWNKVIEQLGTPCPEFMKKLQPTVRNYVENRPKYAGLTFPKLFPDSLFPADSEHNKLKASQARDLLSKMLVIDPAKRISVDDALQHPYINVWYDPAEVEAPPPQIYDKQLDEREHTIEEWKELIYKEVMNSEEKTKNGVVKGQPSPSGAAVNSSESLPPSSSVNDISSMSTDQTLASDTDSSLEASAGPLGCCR
T7 sequence (Q9P289 whole entry): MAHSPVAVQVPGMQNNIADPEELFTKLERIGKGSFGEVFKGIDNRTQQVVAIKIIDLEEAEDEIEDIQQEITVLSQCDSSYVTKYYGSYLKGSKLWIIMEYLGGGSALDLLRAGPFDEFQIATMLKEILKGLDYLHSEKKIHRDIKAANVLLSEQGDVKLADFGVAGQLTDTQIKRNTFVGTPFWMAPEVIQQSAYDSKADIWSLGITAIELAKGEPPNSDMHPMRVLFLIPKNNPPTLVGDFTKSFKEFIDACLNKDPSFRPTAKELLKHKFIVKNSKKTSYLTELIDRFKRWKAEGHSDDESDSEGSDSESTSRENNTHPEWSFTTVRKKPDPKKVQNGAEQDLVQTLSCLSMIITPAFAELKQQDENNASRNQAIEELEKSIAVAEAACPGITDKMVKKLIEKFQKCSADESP

## C=CC(=O)Nc1cc(-c2cc(-c3cc4c([nH]3)CCNC4=O)ccn2)ccc1OC(F)(F)F [compound 11]
[1]; 10 nM
  inhibition at 0.01 µM: 4%
[1]; 100 nM
  inhibition at 0.1 µM: 6%
[1]; 1000 nM
  inhibition at 1 µM: 38%
[2]; 10 nM
  inhibition at 0.01 µM: -9%
[2]; 100 nM
  inhibition at 0.1 µM: 14%
[2]; 1000 nM
  inhibition at 1 µM: 16%
[3]; 10 nM
  inhibition at 0.01 µM: 15%
[3]; 100 nM
  inhibition at 0.1 µM: -1%
[3]; 1000 nM
  inhibition at 1 µM: -10%
[4]; 10 nM
  inhibition at 0.01 µM: -7%
[4]; 100 nM
  inhibition at 0.1 µM: -2%
[4]; 1000 nM
  inhibition at 1 µM: -4%
[5]; 10 nM
  inhibition at 0.01 µM: -11%
[5]; 100 nM
  inhibition at 0.1 µM: -11%
[5]; 1000 nM
  inhibition at 1 µM: -4%
[6]; 10 nM
  inhibition at 0.01 µM: -13%
[6]; 100 nM
  inhibition at 0.1 µM: 15%
[6]; 1000 nM
  inhibition at 1 µM: 67%
[7]; 10 nM
  inhibition at 0.01 µM: -5%
[7]; 100 nM
  inhibition at 0.1 µM: -8%
[7]; 1000 nM
  inhibition at 1 µM: 2%
[8]; 10 nM
  inhibition at 0.01 µM: 7%
[8]; 100 nM
  inhibition at 0.1 µM: 5%
[8]; 1000 nM
  inhibition at 1 µM: 14%
[9]; 10 nM
  inhibition at 0.01 µM: 6%
[9]; 100 nM
  inhibition at 0.1 µM: -2%
[9]; 1000 nM
  inhibition at 1 µM: -1%
